Measurements as given in patent US5441935A, “Growth factor receptors” (Imperial Cancer Research Technology Ltd., priority 1987, dated 1995).
Read-outs that look alike come from different tables or passages of the source. Non-standard residues stand in square brackets, D forms with d. Residues, ends and D or L forms follow the SMILES beside them. No end group written: not given here. Tyr(3-I) = N[C@@H](Cc1ccc(O)c(I)c1)C(=O)O

Tests used:
Mr 75000-85000 protein = target: T1, Mr 75000-85000 protein (Mus musculus, UniProt P21729); experiment: ^125 I-GRP affinity labelling (EGS cross-linking) of the Mr 75000-85000 protein in Swiss 3T3 cells; format: binding
T1 construct: endogenous in cells; host or cells: Swiss 3T3 cells (intact, confluent and quiescent)
T1 sequence (P21729 whole entry): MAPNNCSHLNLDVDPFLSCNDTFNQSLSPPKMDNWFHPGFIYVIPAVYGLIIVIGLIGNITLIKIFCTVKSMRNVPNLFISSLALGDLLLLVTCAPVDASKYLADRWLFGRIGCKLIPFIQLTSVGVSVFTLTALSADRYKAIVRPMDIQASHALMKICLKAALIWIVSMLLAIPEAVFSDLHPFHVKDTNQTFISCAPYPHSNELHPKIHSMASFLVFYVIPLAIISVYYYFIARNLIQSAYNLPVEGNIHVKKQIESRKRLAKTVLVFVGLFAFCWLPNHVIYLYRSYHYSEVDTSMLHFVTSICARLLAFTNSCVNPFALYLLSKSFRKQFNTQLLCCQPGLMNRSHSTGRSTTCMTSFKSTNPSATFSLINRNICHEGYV
Description: After 2.5 h the cells were washed three times at 15° C. with phosphate buffered saline (PBS) and then incubated for 15 min at 15° C. in 1 ml of binding medium, pH 7.4 in the presence of the appropriate cross-linking agent at the concentration indicated. The cross-linking agents (EGS, DSS, DSP and BSCOES) were dissolved in dimethyl sulphoxide immediately prior to use and were added to medium to give a final concentration of dimethylsulphoxide of 1-2%. The cultures were rapidly rinsed twice with PBS at 4° C. and solubilized in 0.1 ml of 2× sample buffer 0.2M Tris-HCl, pH 6.8, 10% (w/v) glycerol, 6% sodium dodecyl sulphate (SDS) (w/v) 4% β-mercaptoethanol (v/v) and 2 mM ethylenediaminetetraacetic acid. Samples were immediately heated at 100° C. for 3- 5 min and analysed by either one or two-dimensional gel electrophoresis.
Slab gel electrophoresis was performed using 7.5% acrylamide in the separating gel and 5% in the stacking gel, and 0.1% SDS (31). After electrophoresis gels were stained, destained and dried down onto paper for autoradiography with Fuji X-ray film (Fuji Photo Film Co. Ltd. Japan). Dried gels were exposed to film for 4-8 days. Two-dimensional gel electrophoresis was performed as described by O'Farrell (32) using isoelectric focusing in the 1st dimension and SDS-polyacrylamide gel electrophoresis (SDS-PAGE) (8% polyacrylamide) in the second dimension. The samples prepared for isoelectric focusing containing 1.4% LKB ampholytes, pH 5-7, plus 0.6% LKD ampholytes, pH,3.5-10, 6M urea, and 2% Nonidet P-40. The Mr 75000-85000 band from autoradiograms was scanned using a Joyce-Loebl double beam densitometer and the areas under specific peaks were measured with a Hewlett-Packard digitizer.
FIG. 4. […] Values are expressed as percentage of the specific binding obtained in the absence of antagonists. […] Each point represents the mean of 3 determinations. […] Specific binding (B) is expressed in pmol/10^6 cells and is shown in a double-reciprocal plot. Each point represents the mean of duplicate determinations. […] After 2 hours, the cultures were washed twice with binding medium then incubated in 1 ml containing 6 mM ethylene glycol bis (succinimidylsuccinate) (EGS) at pH 7.4 for 15 minutes at 15° C. The cultures were then washed twice with cold phosphate-buffered saline and solubilised in 0.1 ml of 2× sample buffer, then immediately heated at 100° C. for 5 minutes and electrophoresed on a 10% polyacrylamide gel.
After the incubation period cultures were treated with […] EGS as described in Materials and Methods. Each value is expressed as a percentage of the level of the Mr 75000-85000 protein obtained with no additions (-). Other experimental details are as described in Materials and Methods.

Swiss 3T3 cells [1] = experiment: DNA synthesis by [^3 H]thymidine incorporation in Swiss 3T3 cells (GRP-induced mitogenesis); format: cell-based, mouse; conditions: for Ability to inhibit mitogenesis stimulated by GRP (relative potency): substance P antagonists tested at 50 μM
Description: Cell culture procedure (33), assays of DNA synthesis by ^3 H-thymidine incorporation (34) and ^125 I-GRP binding to intact cells (13) were performed as described previously.
FIG. 3. Inhibition of GRP-induced DNA synthesis by [DPro^2 ]spantide (A) and [DPhe^5 ]spantide (D). […] After 40 hours DNA synthesis was estimated by [^3 H]thymidine incorporation into acid-precipitable material. […] Each point represents the mean of duplicate determinations. […] Values are expressed as a percentage of [^3 H]thymidine incorporation obtained in the absence of antagonists (100%=8.6×10^5 cpm per dish). Each point represents the mean of 4 determinations.

GRP receptor = target: T2, GRP receptor (Mus musculus, UniProt P21729); conditions: reference (13); cited from earlier work
T2 construct: endogenous in cells; host or cells: Swiss 3T3 cells (intact, confluent and quiescent)
T2 sequence (P21729 whole entry): as above

Swiss 3T3 cells [2] = conditions: reference (13); cited from earlier work
[3] = ^125 I-GRP 0.5 nM, 15° C., 2.5 h, EGS, each addition at its own concentration

Mr 75000-85000 protein % of control (Mr 75000-85000 protein; [3]) | Molecule | also measured
9.7 % of control | CC(C)C[C@H](NC(=O)[C@H](CC(C)C)NC(=O)[C@@H](Cc1c[nH]c2ccccc12)NC(=O)[C@H](Cc1ccccc1)NC(=O)[C@@H](Cc1c[nH]c2ccccc12)NC(=O)[C@H](CCC(N)=O)NC(=O)[C@H](CCC(N)=O)NC(=O)[C@@H]1CCCN1C(=O)[C@H](CCCCN)NC(=O)[C@H]1CCCN1C(=O)[C@H](N)CCCNC(=N)N)C(N)=O [Antagonist A, D-Arg-D-Pro-Lys-Pro-Gln-Gln-D-Trp-Phe-D-Trp-Leu-Leu-NH2] (H-[dR][dP]KPQQ[dW]F[dW]LL-NH2) | 
 | CC(C)C[C@H](NC(=O)[C@H](CC(C)C)NC(=O)[C@@H](Cc1c[nH]c2ccccc12)NC(=O)[C@H](Cc1ccccc1)NC(=O)[C@@H](Cc1c[nH]c2ccccc12)NC(=O)[C@H](CCC(N)=O)NC(=O)[C@H](CCC(N)=O)NC(=O)[C@@H]1CCCN1C(=O)[C@H](CCCCN)NC(=O)[C@@H]1CCCN1C(=O)[C@H](N)CCCNC(=N)N)C(N)=O [B, DArgProLysProGlnGlnDTrpPheDTrpLeuLeuNH2] (H-[dR]PKPQQ[dW]F[dW]LL-NH2) | Antagonist activity against GRP-stimulated mitogenesis (Swiss 3T3 cells [1]; even at 100 μM): no antagonist activity; Ability to inhibit mitogenesis stimulated by GRP (relative potency) (Swiss 3T3 cells [1]): less potent than either A or D
 | CSCC[C@H](NC(=O)[C@H](CC(C)C)NC(=O)[C@H](Cc1cnc[nH]1)NC(=O)CNC(=O)[C@@H](NC(=O)[C@H](C)NC(=O)[C@H](Cc1c[nH]c2ccccc12)NC(=O)[C@H](CCC(N)=O)NC(=O)[C@H](CC(N)=O)NC(=O)CNC(=O)[C@H](CC(C)C)NC(=O)[C@H](CCCN=C(N)N)NC(=O)[C@H](CCC(N)=O)NC(=O)[C@@H]1CCC(=O)N1)C(C)C)C(N)=O [Bombesin] | Mr 75000-85000 protein % of control (Mr 75000-85000 protein): 0.5
 | CSCC[C@H](NC(=O)[C@H](CC(C)C)NC(=O)[C@H](Cc1c[nH]cn1)NC(=O)CNC(=O)[C@@H](NC(=O)[C@H](C)NC(=O)[C@H](Cc1c[nH]c2ccccc12)NC(=O)[C@H](Cc1c[nH]cn1)NC(=O)[C@H](CC(N)=O)NC(=O)CNC(=O)[C@H](CCCNC(=N)N)NC(=O)[C@@H]1CCCN1C(=O)[C@H](Cc1ccc(O)c(I)c1)NC(=O)[C@H](CCSC)NC(=O)[C@H](CCCCN)NC(=O)[C@H](C)NC(=O)[C@H](CC(C)C)NC(=O)[C@@H](NC(=O)[C@@H](NC(=O)CNC(=O)CNC(=O)CNC(=O)[C@@H](NC(=O)[C@H](CO)NC(=O)[C@@H](NC(=O)[C@@H]1CCCN1C(=O)[C@H](C)N)C(C)C)C(C)C)[C@@H](C)O)C(C)C)C(C)C)C(N)=O [^125 I-GRP] (H-APVSVGGGTVLAKM[Tyr(3-I)]PRGNHWAVGHLM-NH2; N-terminus and C-terminus assumed) | Kd (Mr 75000-85000 protein; 15° C., 2.5 h, EGS 6 mM, read-out: Kd from double-reciprocal plot of cross-linking of ^125 I-GRP to the Mr 75000-85000 band): 1 nM
94 % of control | EGF: epidermal growth factor | 
93 % of control | GRP (1-16): the 1-16 amino acid (amino-terminal) fragment of GRP (VPLPAGGGTVLTKMYP; Gastrin-releasing peptide; UniProt P07492 24-39, looked up, fragment) | Inhibition of ^125 I-GRP binding (GRP receptor): neither inhibits ^125 I-GRP binding; Stimulation of DNA synthesis (Swiss 3T3 cells [2]): nor stimulates DNA synthesis
0.4 % of control | GRP (14-27): the 14-27 amino acid fragment of GRP (MYPRGNHWAVGHLM; ends and bridges not checked; UniProt P07492 37-50, looked up, fragment) | 
 | HArgGlyGlnDTrpPheGlyAsp(OtBu)2 [J] | Ability to inhibit mitogenesis stimulated by GRP (relative potency) (Swiss 3T3 cells [1]): less potent than either A or D
90 % of control | Insulin: mitogen for Swiss 3T3 cells | 
2 % of control | Litorin | 
99 % of control | PDGF | 
94 % of control | Substance K: neuropeptide | 

Molecule | Mr 75000-85000 protein % of control (Mr 75000-85000 protein; [3]) | also measured
C[C@H](N)C(=O)NCC(=O)N[C@H]1CSSC[C@@H](C(=O)O)NC(=O)[C@H](CO)NC(=O)[C@H]([C@@H](C)O)NC(=O)[C@H](Cc2ccccc2)NC(=O)[C@H]([C@@H](C)O)NC(=O)[C@H](CCCCN)NC(=O)[C@H](Cc2c[nH]c3ccccc23)NC(=O)[C@H](Cc2ccccc2)NC(=O)[C@H](Cc2ccccc2)NC(=O)[C@H](CC(N)=O)NC(=O)[C@H](CCCCN)NC1=O [Somatostatin] | 97 % of control | 
CSCC[C@H](NC(=O)[C@H](CC(C)C)NC(=O)CNC(=O)[C@H](Cc1ccccc1)NC(=O)[C@H](Cc1ccccc1)NC(=O)[C@H](CCC(N)=O)NC(=O)[C@H](CCC(N)=O)NC(=O)[C@@H]1CCCN1C(=O)[C@H](CCCCN)NC(=O)[C@@H]1CCCN1C(=O)[C@@H](N)CCCNC(=N)N)C(N)=O [Substance P] | 91 % of control | 
NC(=O)CC[C@@H]1NC(=O)[C@H](Cc2ccccc2)NC(=O)[C@H](Cc2ccc(O)cc2)NC(=O)[C@@H](N)CSSC[C@@H](C(=O)N2CCC[C@H]2C(=O)N[C@@H](CCCN=C(N)N)C(=O)NCC(N)=O)NC(=O)[C@H](CC(N)=O)NC1=O [Vasopressin] | 94 % of control | 
